Results: ChEMBL document CHEMBL1151676, “Structure and absolute stereochemistry of fusaproliferin, a toxic metabolite from Fusarium proliferatum” (J Nat Prod, 1996)
In brackets after ≈: the same amount, converted by molar mass.

Test: Toxicity in Artemia salina
Assay type: organism-based
Conditions: in vivo, read-out: LD50 (the source's name)

`CC(=O)OC[C@@H](C)C1=C(O)C(=O)[C@@]2(C)C/C=C(\C)CC/C=C(\C)CC[C@H](O)/C(C)=C/C[C@H]12` [FUSAPROLIFERIN] gave an LC50 of 0.4 µg/mL (≈ 0.9 µM).
